These results are taken from ChEMBL document CHEMBL3608269, “Triazole-Linked Glycolipids Enhance the Susceptibility of MRSA to β-Lactam Antibiotics” (ACS Med Chem Lett, 2015).

Values after ≈ are worked out from the molar mass of the structure shown. Active and inactive are the calls of the source. No cut-off for these calls is given here. Some results are limits rather than exact numbers.

The test system of assay [1] is Staphylococcus aureus. The experiment in a line: Potentiation of oxacillin-mediated antibacterial activity against methicillin-resistant Staphylococcus aureus ATCC 43300 at 32 ug/ml after 20 to 24 hrs by CLSI method. It counts as functional.
For assay [2], the system named is Staphylococcus aureus. The assay is described as follows: Antibacterial activity against methicillin-resistant Staphylococcus aureus ATCC 43300 after 20 to 24 hrs by CLSI method. In kind it is functional.
For assay [3], the system named is Staphylococcus aureus. The experiment in a line: Potentiation of oxacillin-mediated antibacterial activity against methicillin-resistant Staphylococcus aureus ATCC 43300 assessed as decrease in oxacillin MIC at 32 ug/ml after 20 to 24 hrs by CLSI method relative to control. It counts as functional.
The subject of assay [4] is Staphylococcus aureus. The experiment in a line: Antibacterial activity against methicillin-resistant Staphylococcus aureus R36 clinical isolate after 20 to 24 hrs by CLSI method. It counts as functional.
The test system of assay [5] is Staphylococcus aureus. The experiment in a line: Antibacterial activity against methicillin-resistant Staphylococcus aureus R16 clinical isolate after 20 to 24 hrs by CLSI method. It counts as functional.
Assay [6] relates to Staphylococcus aureus. The experiment in a line: Antibacterial activity against methicillin-resistant Staphylococcus aureus R313 clinical isolate after 20 to 24 hrs by CLSI method. In kind it is functional.
Assay [7] deals with Staphylococcus aureus. The experiment in a line: Antibacterial activity against methicillin-resistant Staphylococcus aureus R50 clinical isolate after 20 to 24 hrs by CLSI method. In kind it is functional.
In assay [8] the test system is Staphylococcus aureus. The assay is described as follows: Antibacterial activity against methicillin-resistant Staphylococcus aureus R49 clinical isolate after 20 to 24 hrs by CLSI method. It counts as functional.
Assay [9] relates to Staphylococcus aureus. The assay is described as follows: Antibacterial activity against methicillin-resistant Staphylococcus aureus ATCC 43300 assessed as growth inhibition at 2 ug/ml measured up to 24 hrs by time kill assay. In kind it is functional, organism-based.
The subject of assay [10] is Staphylococcus aureus. The assay is described as follows: Antibacterial activity against methicillin-resistant Staphylococcus aureus R15 clinical isolate after 20 to 24 hrs by CLSI method. In kind it is functional.
Assay [11] relates to Staphylococcus aureus. The experiment in a line: Downregulation of mecA mRNA expression in methicillin-resistant Staphylococcus aureus ATCC 43300 at 2 ug/ml after 4 hrs by RT-PCR analysis. In kind it is functional, organism-based.
Assay [12] deals with Staphylococcus aureus. The experiment in a line: Antibacterial activity against methicillin-resistant Staphylococcus aureus R304 clinical isolate after 20 to 24 hrs by CLSI method. In kind it is functional.
Assay [13] concerns Staphylococcus aureus. The experiment in a line: Antibacterial activity against methicillin-resistant Staphylococcus aureus R314 clinical isolate after 20 to 24 hrs by CLSI method. It counts as functional.
For assay [14], the system named is Staphylococcus aureus. The assay is described as follows: Antibacterial activity against methicillin-resistant Staphylococcus aureus ATCC 43300 assessed as growth inhibition at 2 ug/ml after 24 hrs by Epsilometer test. It counts as functional, organism-based.
The test system of assay [15] is Staphylococcus aureus. The experiment in a line: Antibacterial activity against methicillin-resistant Staphylococcus aureus R308 clinical isolate after 20 to 24 hrs by CLSI method. In kind it is functional.
Assay [16] relates to Staphylococcus aureus. The assay is described as follows: Antibacterial activity against methicillin-resistant Staphylococcus aureus R53 clinical isolate after 20 to 24 hrs by CLSI method. It counts as functional.
For assay [17], the system named is Staphylococcus aureus. The experiment in a line: Antibacterial activity against methicillin-resistant Staphylococcus aureus R306 clinical isolate after 20 to 24 hrs by CLSI method. In kind it is functional.
For assay [18], the system named is Staphylococcus aureus. The assay is described as follows: Antibacterial activity against methicillin-resistant Staphylococcus aureus R302 clinical isolate after 20 to 24 hrs by CLSI method. In kind it is functional.
The test system of assay [19] is Staphylococcus aureus. The assay is described as follows: Antibacterial activity against methicillin-resistant Staphylococcus aureus ATCC 43300 assessed as change in bacterial surface at 2 ug/ml after 4 hrs by scanning electron microscopic analysis. In kind it is functional, organism-based.

`CCCCCCCCCCCCCCCCO[C@@H]1O[C@H](CO)[C@@H](O)[C@H](O)[C@H]1O`: the results for the MIC in the assay with Staphylococcus aureus [1] and in the assay on Staphylococcus aureus [2] were above 32 µg/mL and above 256 µg/mL, respectively.
On to `CCCCCCCCCCCCO` [DODECANOL], for which the MIC with Staphylococcus aureus [1] was above 32 µg/mL; in the assay with Staphylococcus aureus [2], above 256 µg/mL.
The matching figures for `CCCCCCCCO` [OCTANOL]: above 32 µg/mL and above 256 µg/mL.
`CCCCCCCCCCO` [DECANOL]: the values for the MIC in the assay with Staphylococcus aureus [1] and in the assay on Staphylococcus aureus [2] were above 32 µg/mL and above 256 µg/mL, respectively.
With `CCCCCCCCCCCCOCc1cn([C@@H]2O[C@H](CO)[C@@H](O)[C@H](O)[C@@H]2O)nn1`, the results for the MIC in the assay with Staphylococcus aureus [1] and against Staphylococcus aureus [2] were 4 µg/mL and 256 µg/mL (≈ 596 µM), respectively. In addition, the “fold change (FC)” value in the assay on Staphylococcus aureus [3] amounted to 64.
For the compound `CCCCCCO` [1-HEXANOL], the figures for the MIC with Staphylococcus aureus [1] and against Staphylococcus aureus [2] were above 32 µg/mL and above 256 µg/mL, respectively.
As for `CCCCCCCCCCCCCCOCc1cn([C@@H]2O[C@H](CO)[C@H](O)[C@H](O)[C@H]2O)nn1`, the MIC in the assay on Staphylococcus aureus [1] is 8 µg/mL; in the assay on Staphylococcus aureus [2] it was 256 µg/mL (≈ 559 µM). Further, in the assay on Staphylococcus aureus [3], the “fold change (FC)” value is recorded as 32.
Take `CCCCCCCCCCCCCCO` [MYRISTYL ALCOHOL]: the MIC with Staphylococcus aureus [1] is above 32 µg/mL; with Staphylococcus aureus [2], above 256 µg/mL.
Consider `CCCCCCCCCCCCCCOCc1cn([C@@H]2O[C@H](CO)[C@@H](O)[C@H](O)[C@H]2O)nn1`, for which the values for the MIC with Staphylococcus aureus [1] and with Staphylococcus aureus [2] were 4 µg/mL and 256 µg/mL (≈ 559 µM), respectively. For the same compound, the “fold change (FC)” value in the assay on Staphylococcus aureus [3] is 64.
Take `Cc1onc(-c2ccccc2)c1C(=O)N[C@@H]1C(=O)N2[C@@H]1SC(C)(C)[C@@H]2C(=O)O` [OXACILLIN]: the MIC with Staphylococcus aureus [4] was 128 µg/mL (≈ 319 µM); against Staphylococcus aureus [5], at least 256 µg/mL; with Staphylococcus aureus [6], 16 µg/mL (≈ 39.9 µM); in the assay on Staphylococcus aureus [7] it was 8 µg/mL (≈ 19.9 µM); against Staphylococcus aureus [8], 8 µg/mL (≈ 19.9 µM); against Staphylococcus aureus [2] it was 64 µg/mL (≈ 159 µM). In addition, the MIC against Staphylococcus aureus [10] was 256 µg/mL (≈ 638 µM); with Staphylococcus aureus [12], 512 µg/mL (≈ 1280 µM); in the assay with Staphylococcus aureus [13], 512 µg/mL (≈ 1280 µM); with Staphylococcus aureus [15], 1020 µg/mL (≈ 2550 µM); with Staphylococcus aureus [16], 8 µg/mL (≈ 19.9 µM); in the assay with Staphylococcus aureus [17], 512 µg/mL (≈ 1280 µM). The compound further displayed an MIC in the assay with Staphylococcus aureus [18] of 512 µg/mL (≈ 1280 µM). The “growth inhibition (GI)” value in the assay with Staphylococcus aureus [9] and with Staphylococcus aureus [14] was “inactive” in each case. In addition, the outcome in the assay on Staphylococcus aureus [11] and in the assay with Staphylococcus aureus [19] was inactive.
`CCCCCCCCCCCCCCO[C@@H]1O[C@H](CO)[C@@H](O)[C@H](O)[C@H]1O`: the MIC with Staphylococcus aureus [1] is above 32 µg/mL; with Staphylococcus aureus [2] it was above 256 µg/mL.
As to `CCCCCCCCCCCCCCCCO` [CETYL ALCOHOL], the MIC was above 32 µg/mL in the assay on Staphylococcus aureus [1] and above 256 µg/mL against Staphylococcus aureus [2].
The like results for `CCCCCCCCCCCCCCCCCCO` [CETOSTEARYL ALCOHOL] were, in that order, above 32 µg/mL and above 256 µg/mL.
Regarding `CCCCCCCCCCCCCCCCOCc1cn([C@@H]2O[C@H](CO)[C@H](O)[C@H](O)[C@H]2O)nn1`, the MIC in the assay with Staphylococcus aureus [1] was 16 µg/mL; against Staphylococcus aureus [2], 256 µg/mL (≈ 527 µM). In addition, the “fold change (FC)” value in the assay with Staphylococcus aureus [3] was 16.
